# Source: patent US20250092065A1, “2-(INDAZOL-5-YL)-6-(PIPERIDIN-4-YL)-1,7-NAPHTHYRIDINE DERIVATIVES AND RELATED COMPOUNDS AS MODULATORS FOR SPLICING NUCLEIC ACIDS AND FOR THE TREATMENT OF PROLIFERATIVE DISEASES” (REMIX THERAPEUTICS INC., priority 2022, published 2025)
# Like-named read-outs stand apart in the source and are kept apart here.
# How the values were obtained:
# HTT mRNA = test: RT-qPCR splicing assay, HTT mRNA canonical (CJ) and alternative (AJ) junction; format: cell-based, human; conditions: Homo sapiens; for AC50: HTT alternative junction mRNA, read-out: HTT AJ (increase in AJ mRNA, AC50)
# In short: (§1)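 Canonical and alternative-exon junction isoforms were quantified by RT-qPCR in cell lysates, with ΔCt against a housekeeper (GAPDH/GUSB/PPIA), then ΔΔCt vs DMSO, converted to 2^(−ΔΔCt) and percent response. K562 or A673 cells were exposed for 24 h to 11 concentrations (3-fold, top final 10 uM).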
# MYB mRNA = test: RT-qPCR splicing assay, MYB mRNA canonical (CJ) and alternative (AJ) junction; format: cell-based, human; conditions: Homo sapiens; for AC50: MYB alternative junction mRNA, read-out: MYB AJ (increase in AJ mRNA, AC50)
# In short: as §1
# SMN2 mRNA = test: RT-qPCR splicing assay, SMN2 mRNA; format: cell-based, human; conditions: Homo sapiens, canonical junction qPCR panel, Table 4; read-out: SMN2 IC50 (decrease in CJ mRNA levels)
# In short: as §1
# MYB = test: HiBiT protein abundance assay, MYB (K562 HiBiT knock-in); format: cell-based, human; conditions: HiBiT knock-in K562 cells, 24 hours, top dose 10 μM
# In short: (§2)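 Steps: seed HiBiT knock-in K562 cells; add compound in 10-point 3-fold series from 10 μM final; incubate 24 h, 37 °C; add lytic HiBiT reagent, shake 5 min, wait 10 min; read luminescence. Normalize to parental K562 and DMSO controls, fit 4PL, take IC50.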
# HTT = test: HiBiT protein abundance assay, HTT (K562 HiBiT knock-in); format: cell-based, human; conditions: HiBiT knock-in K562 cells, 24 hours, top dose 10 μM
# In short: as §2
# Target C = test: HiBiT protein abundance assay, Target C (K562 HiBiT knock-in); format: cell-based, human; conditions: HiBiT knock-in K562 cells, 24 hours, top dose 10 μM
# In short: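 K562 HiBiT knock-in cells (10000/well) were treated 24 h at 37° C with a 10-point 3-fold dilution series (top 10 μM final, ≤0.25% DMSO). HiBiT luminescence was read after lytic LgBiT detection. Percent response used unmodified K562 and DMSO-treated knock-in controls, and IC50 came from a four-parameter fit at 50% of untreated.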
# K562 cells = test: Cell Titer Glo 2.0 cell viability (toxicity) assay, K562; conditions: 500 cells/well, 72 hours
# [1] = HTT canonical junction mRNA, RT-qPCR, read-out: HTT CJ (decrease in CJ mRNA levels, IC50)
# [2] = canonical junction qPCR panel, Table 4, read-out: HTT IC50 (decrease in CJ mRNA levels)
# [3] = MYB canonical junction mRNA, RT-qPCR, read-out: MYB CJ (decrease in CJ mRNA levels, IC50)
# [4] = canonical junction qPCR panel, Table 4, read-out: MYB IC50 (decrease in CJ mRNA levels)
SMILES,AC50 (HTT mRNA; RT-qPCR) [nM],IC50 (HTT mRNA; [1]) [nM],IC50 (HTT mRNA; [2]) [nM],AC50 (MYB mRNA; RT-qPCR) [nM],IC50 (MYB mRNA; [3]) [nM],IC50 (MYB mRNA; [4]) [nM],IC50 (SMN2 mRNA) [nM],IC50 (MYB) [nM],IC50 (HTT) [nM],IC50 (Target C) [nM],"Effect of Exemplary Compounds on Cell Viability, K562 (K562 cells)"
Cc1nc2cc(O)c(-c3ccc4nc(N5CC[C@H](NC6CC6)C5)ccc4n3)cc2o1 [Compound 211],< 100,< 100,< 100,< 100,< 100,< 100,< 100,< 100,< 100,< 100,B (B represents 100-1000 nM)
Cc1nc2cc(O)c(-c3ccc4nc(N5CC[C@@H](NC6CC6)C5)ccc4n3)cc2o1 [Compound 212],< 100,< 100,< 100,100 to 1000,100 to 1000,100 to 1000,< 100,100 to 1000,< 100,100 to 1000,B (B represents 100-1000 nM)
Cc1nc2c(C)c(O)c(-c3ccc4nc(N5CC[C@@H](NC(C)(C)C)C5)ccc4n3)cc2o1 [Compound 215],< 100,< 100,< 100,< 100,< 100,< 100,< 100,< 100,< 100,< 100,A (A represents <100 nM)
Cn1cc2cc(-c3cc4ccc(N5CCC(NC(C)(C)C)C5)nc4cn3)c(O)cc2n1 (centres unmarked) [Compound 218],> 10000,> 10000,> 10000,1000 to 10000,> 10000,> 10000,100 to 1000,1000 to 10000,> 10000,> 10000,C (C represents 1000-9999 nM)
Cn1cc2cc(-c3ccc4nc(N5CC[C@@H](NC6(C)CC6)C5)ccc4n3)c(O)cc2n1 [Compound 220],< 100,< 100,< 100,< 100,< 100,< 100,< 100,< 100,< 100,< 100,A (A represents <100 nM)
Cn1cc2cc(-c3ccc4nc(N5CC[C@H](NC6(C)CC6)C5)ccc4n3)c(O)cc2n1 [Compound 221],< 100,< 100,< 100,< 100,< 100,< 100,< 100,< 100,< 100,< 100,B (B represents 100-1000 nM)
Cn1cc2cc(-c3ccc4nc(N5CC[C@H](NC6(C)CC6)C5)ccc4n3)c(O)c(F)c2n1 [Compound 222],< 100,< 100,< 100,< 100,< 100,< 100,< 100,< 100,< 100,< 100,B (B represents 100-1000 nM)
Cn1cc2cc(-c3ccc4nc(N5CC[C@@H](NC6(C)CC6)C5)ccc4n3)c(O)c(F)c2n1 [Compound 223],< 100,< 100,< 100,< 100,< 100,< 100,< 100,< 100,< 100,< 100,A (A represents <100 nM)
Cc1c(O)c(-c2ccc3nc(N4CCC(NC5(C)CC5)C4)ccc3n2)cc2cn(C)nc12 (centres unmarked) [Compound 224],< 100,< 100,< 100,< 100,< 100,< 100,< 100,< 100,< 100,< 100,B (B represents 100-1000 nM)
Cc1c(O)c(-c2ccc3nc(N4CC[C@@H](NC5(C)CC5)C4)ccc3n2)cc2cn(C)nc12 [Compound 225],< 100,< 100,< 100,< 100,< 100,< 100,< 100,< 100,< 100,< 100,B (B represents 100-1000 nM)
Cc1c(O)c(-c2ccc3nc(N4CC[C@H](NC5(C)CC5)C4)ccc3n2)cc2cn(C)nc12 [Compound 226],< 100,< 100,< 100,100 to 1000,< 100,< 100,< 100,< 100,< 100,< 100,B (B represents 100-1000 nM)
Cc1nc2cc(O)c(-c3ccc4nc(N5CCC(NC6CCC6)C5)ccc4n3)cc2o1 (centres unmarked) [Compound 228],< 100,< 100,< 100,< 100,100 to 1000,100 to 1000,< 100,< 100,< 100,100 to 1000,B (B represents 100-1000 nM)
Cc1nc2cc(O)c(-c3ccc4nc(N5CC[C@@H](NC(C)C)C5)ccc4n3)cc2o1 [Compound 232],< 100,< 100,< 100,< 100,< 100,< 100,< 100,< 100,< 100,< 100,A (A represents <100 nM)
Cc1nc2cc(O)c(-c3ccc4nc(N5CC[C@H](NC(C)C)C5)ccc4n3)cc2o1 [Compound 233],< 100,< 100,< 100,< 100,< 100,< 100,< 100,< 100,< 100,< 100,B (B represents 100-1000 nM)
Cc1nc2cc(O)c(-c3ccc4nc(N5CCC(N)C5)ccc4n3)cc2o1 (centres unmarked) [Compound 234],< 100,100 to 1000,100 to 1000,< 100,100 to 1000,100 to 1000,< 100,< 100,< 100,< 100,A (A represents <100 nM)
Cn1cc2cc(-c3ccc4nc(N5CCC(N)C5)ccc4n3)c(O)c(F)c2n1 (centres unmarked) [Compound 238],< 100,< 100,< 100,< 100,< 100,< 100,< 100,< 100,< 100,< 100,A (A represents <100 nM)
Cn1cc2cc(-c3ccc4nc(N5CC[C@@H](NCC(F)(F)F)C5)ccc4n3)c(O)cc2n1 [Compound 245],> 10000,> 10000,> 10000,> 10000,> 10000,> 10000,1000 to 10000,> 10000,1000 to 10000,> 10000,D (D represents greater than 10 μM in K562 cells)
Cn1cc2cc(-c3ccc4nc(N5CC[C@@H](N[C@H]6C[C@H](F)C6)C5)ccc4n3)c(O)cc2n1 [Compound 246],< 100,< 100,< 100,< 100,< 100,< 100,< 100,< 100,< 100,< 100,B (B represents 100-1000 nM)
Cn1cc2cc(-c3ccc4nc(N5CC[C@H](N[C@H]6C[C@H](F)C6)C5)ccc4n3)c(O)cc2n1 [Compound 247],100 to 1000,< 100,< 100,< 100,< 100,< 100,< 100,100 to 1000,100 to 1000,100 to 1000,B (B represents 100-1000 nM)
